Source: ChEMBL document CHEMBL3507680, “University of Dundee, Gates Library screen for HepG2 cell viability”

test: Human HepG2 cell viability assay in 384 well format; assay type: toxicity, cell-based; set-up: dose 125 nL, time 70.5 hour; cytotoxicity at 70.5 h: concentration not given beside the values; details: HepG2 cells, read-out: Inhibition

SMILES | cytotoxicity at 70.5 h [%]
Cc1nc(Nc2ncccn2)cc(C2CCCN2C(C)C)n1 (stereo not drawn) | -14
CN(Cc1cccs1)C1CCC[C@@H]2CN(C(=O)c3cnccn3)C[C@H]12 (stereo partly drawn) | -7.78
NC(=O)C1(CCCc2ccccn2)CCCN(c2ncccn2)C1 (stereo not drawn) | -2.53
O=C(CCn1ccc(=O)[nH]c1=O)N1CCC(Oc2ncccc2Cl)CC1 | -6.14
CCOC1COC2(CCN(Cc3cccc(C)n3)CC2)C1 (stereo not drawn) | 0.953
COc1ccc(CNC(=O)N(Cc2ccc(F)cc2F)C2CC2)cn1 | 18.5
O=C(O)c1ccccc1-c1ccc(CN2CC(O)C2)cc1 | -11.6
CCC(Nc1ncnc2sc(C(=O)O)c(C)c12)c1ccnn1C (stereo not drawn) | -12.8
CCOC(=O)c1cc2c(=O)[nH]c(=O)n(CCc3ccccc3)c2nc1C | -7.68
COCCN1CCc2c(CNC(=O)c3nccn3C)cncc2C1 | 3.83
Cc1cccnc1CN(C)C(C(=O)O)c1ccc(C(C)(C)C#N)cc1 (stereo not drawn) | -0.799
CS(=O)(=O)N1CCCCCC1C1CCN(Cc2nc(C3CC3)no2)CC1 (stereo not drawn) | 5.88
Cc1cnn(CC(=O)N2CCCN(c3ncccc3C#N)CC2)c1 | -1.08
O=C(CC1CC1)NCc1cn2c(n1)CN(Cc1cccc(F)c1)CC2 | -3.4
Cn1ccc(C(=O)N2CCC(Cc3cnc4[nH]ccc4c3)CC2)n1 | -5.86
COCCCC1(C(=O)O)CCCN(Cc2cc3c(cc2C)OCCO3)C1 (stereo not drawn) | -8.65
CSCC(=O)N1CCC2(CC1)c1ccccc1CC2O (stereo not drawn) | 16.5
N#Cc1ccc(CN2C(=O)c3ccccc3CS2(=O)=O)cc1 | -1.6
Cc1nc(N2CCCC2)nc2c1CCN(C(=O)CN(C)C)CC2 | -3.18
COc1ccc(C)c2c1N(C(=O)c1cnc(C)s1)CCC2 | -1.73
COc1cccc(OCC2CCCN(Cc3ncc[nH]3)C2)c1 (stereo not drawn) | 33.4
COc1ccc2cc(CN(C)CCc3cn[nH]c3)c(=O)[nH]c2c1 | -6.43
Cc1ccc(N2CCCC(N(C)Cc3nnc(C4CC4)o3)C2)nn1 (stereo not drawn) | -5.49

SMILES | cytotoxicity at 70.5 h [%]
Cc1cc(C(=O)N[C@@H]2CCNC[C@H]2O)ccc1Cl | -6.34
CC(C)N1CCC(Nc2ccn(Cc3ccccn3)n2)C1=O (stereo not drawn) | 1.71
CC(C)n1ccnc1C1CCCN(c2ccccn2)C1 (stereo not drawn) | -11.1
c1cc(-c2noc([C@@H]3CCCN3C3CCC3)n2)cc(N2CCCC2)n1 | -6.56
COCCN1CCCn2cnc(CN(C)C(C)C)c2C1 | 4.24
Cc1ccc(C(=O)N2C[C@@H]3OCCN(C(C)C)[C@@H]3C2)cn1 | -11.3
O=C1[C@@H]2CCN(CC3CC3)C[C@@H]2OCCN1c1cccnc1 | 6.28
CCc1nc(CN(C)CC2CCN(CC(C)O)CC2)no1 (stereo not drawn) | -4.55
CN(C)CC(C)(O)CNC(=O)Nc1sc2ccccc2c1Cl (stereo not drawn) | 8.3
Cc1cn(-c2ccccc2)nc1NS(=O)(=O)c1ccc(C(=O)O)cc1 | 10.8
Clc1ccccc1C1(c2ccnc(-c3ccncc3)n2)CCNCC1 | -5.92
O=c1n(CCSCCOc2ccc(Br)cc2)nc2ccccn12 | -10.7
COc1cccc(CN2CCCC3(CCN(C(=O)c4ccco4)C3)C2)c1 (stereo not drawn) | -8.94
CC1Oc2c(cccc2C(=O)N2CCCCCC2)NC1=O (stereo not drawn) | 29.3
CCOc1ccc(NC(=O)c2ccc(C#N)cc2C)cc1CO | -1.73
O=C(NCc1cccnc1)[C@H]1CN2CCC1C[C@@H]2Cn1cc(CO)nn1 (stereo partly drawn) | -6.61
Cc1cnn(C2CCCN(C(=O)c3cn(-c4ccccc4)nn3)C2)c1 (stereo not drawn) | -6.41
COCC(=O)N1CC[C@@H](N2CCOCC2)[C@@H]1Cc1ccccc1 | 4.62
O=C(CN1CCCc2sccc2C1=O)NC1CCc2nccn2C1 (stereo not drawn) | 23.3
CC(C)(C)n1cc(C(=O)N2CCN(Cc3ccsc3)CC2)cn1 | -0.132
CC(C)CNC(=O)Cn1ccc2ccccc21 | -0.252
O=C1CC[C@]2(CC[C@@H](NC3CCOC3)CC2)N1Cc1ccncc1 (stereo partly drawn) | -2.28
CCC[C@H]1CN(Cc2ccc(N(C)C)nc2)C[C@@H]1NC(=O)CCOC | -10.3

SMILES | cytotoxicity at 70.5 h [%]
O=C(Nc1nncs1)N(Cc1cccc(O)c1)C1CC1 | -4.79
CN1CCC(CCc2ccnc(NC(=O)c3ccccn3)c2)CC1 | 15.4
Cc1occc1C(=O)N1C[C@@H]2OCCN(C(C)C)[C@@H]2C1 | 5.55
Cc1nc(CN2CCCN(CC(=O)Nc3ccncc3)CC2)no1 | 5.91
Cc1cn2nc(Sc3nnnn3C)sc2n1 | -4.31
CC(C)c1nn(C)c(N(C)C)c1CNCc1ccc2c(c1)OCCO2 | -5.83
CC(=O)N1CCCC1c1ccc(Br)cn1 (stereo not drawn) | 1.79
C[S+]([O-])c1ccc(NC(=O)Cc2cccnc2)cc1F (stereo not drawn) | 11.1
CC(=O)N1CCN(C[C@H]2CC[C@@H](Cc3ccc4c(c3)OCO4)O2)CC1 | -1.65
Oc1ccc(Cl)cc1CNCc1cccc(C(F)(F)F)c1 | -12.9
Cc1csc(CCNc2ccc(C#N)cc2F)n1 | -10.7
O=C1CCc2cc(C(=O)NCc3ccc(Cl)s3)ccc2N1 | -3.83
c1ncc2c(n1)CN(c1ncnc3[nH]ccc13)CC2 | -4.47
Cc1csc(CNC(=O)N(C)Cc2ccc([S+](C)[O-])cc2)n1 (stereo not drawn) | -5.11
Cc1cccc2c1nc1n2[C@@H](CNC(=O)c2ccncc2)COC1 | -3.38
Cc1nnc2n1CCN(CCC(=O)Nc1sccc1C#N)C2 | -12.9
Cc1csc(CNC(=O)N(C)Cc2nnc3n2CCC3)n1 | -12.1
Cc1ccc([C@H]2CN(CCO)C[C@@H]2NC(=O)CN2CCCCC2=O)o1 | -11
Cc1cnc2c(c1NCc1ccc3c(c1)OCO3)c(=O)n(C)c(=O)n2C | 46.5
Cn1ccnc1CN1CCC(Cc2ccccn2)CC1 | 17.2
Cc1c(CN2CCCC2(C)C(=O)NC2CCCC2)cnn1C (stereo not drawn) | 5.02
O=C(C1CCC1)N1CCC2(COCc3cnc(N4CCOCC4)nc32)C1 (stereo not drawn) | 8.28
CNC(=O)[C@H]1CCS(=O)(=O)[C@@H]2CN(Cc3ccc(OC)cc3)C[C@H]12 | -4.04

SMILES | cytotoxicity at 70.5 h [%]
CCN(CC)c1ncnc2c1CCN(c1ccc(C)nn1)CC2 | -1.7
CCS(=O)(=O)N1CC[C@@H]2[C@H](CC1)N(CC(C)C)CCS2(=O)=O | -1.74
COCCCn1ccc(NS(=O)(=O)c2cc(C)c(F)cc2F)n1 | -15.7
COc1ccc(CCN2CC(n3nc(C)cc3C)C2)cc1 | -16.5
Cc1ccc(N2CCC(NC(C)c3ccc(C)o3)CC2)nc1 (stereo not drawn) | -4.68
Cc1cc(-c2ccccc2Cl)nc(N)n1 | -8.36
CC(=O)c1cc(C(=O)N2CCC(CC(C)C)C2)c(=O)[nH]c1C (stereo not drawn) | -12.6
CC(=O)N1CC(=O)N(c2cnn(C)c2)CC12CCN(Cc1nccs1)C2 (stereo not drawn) | -7.04
CC(C)(C)n1ncc2c(=O)[nH]c(N3CCC4(CCCCC4)C3)nc21 | -2.75
CCCS(=O)(=O)N1CCO[C@H]2[C@H](OCc3ccccn3)CC[C@@H]21 | -1.48
O=C(NCC1CCN(CCc2ccccc2)C1)c1cc(Cl)c[nH]1 (stereo not drawn) | 2.19
CN(Cc1ccccc1O)C(=O)NC1CCCN(c2ncccn2)C1 (stereo not drawn) | 22.3
CCCN1CCC(c2nc3ccc(-c4ccncc4)cn3n2)CC1 | 19.7
COc1c(C)cnc(CN(C)C2CCCCC2)c1C | 8.25
Cc1nccn1Cc1nnc(C2CCCN(c3ncccc3F)C2)n1C (stereo not drawn) | -17.5
Cn1cnnc1C1CCN(C(=O)c2cc3c(s2)CCC3)CC1 | -9.61
COc1ccc(C(O)CNC(=O)Cn2ccc(=O)n(C)c2=O)cc1 (stereo not drawn) | -5.99
Cc1nsc(NC(=O)NC2CCN(C)CC2)n1 | -11.7
CN(Cc1cccnc1)C(=O)NC1CCN(Cc2ccccn2)CC1 | 0.886
Cn1ccc(C(=O)N2C[C@@H]3CCN(c4cnccn4)C[C@@H]3C2)n1 | -9.79
Cc1cc(N2CCN(C3CCSCC3)CC2)n2nc(C)c(C)c2n1 | -5.2
Cc1nocc1C(=O)N1CCCC2(CCN(c3ccsc3)C2=O)C1 (stereo not drawn) | -6.39
CCCNC(=O)NCc1cccnc1OC | -5.64

SMILES | cytotoxicity at 70.5 h [%]
Cn1ccc(CNC(=O)Nc2ccc(S(=O)(=O)C(F)F)cc2)c1 | -2.09
Cc1cc(C)n(-c2ccccc2NC(=O)NCCS(=O)(=O)CC(C)C)n1 | -8.6
O=C1CC(NS(=O)(=O)c2ccc3ccccc3c2)CN1 (stereo not drawn) | -5.96
O=C(NCc1ccoc1)NC1CCN(c2ncccn2)CC1 | 16.1
Cc1csc(Nc2cc(C3CCCCN3C)nc(C)n2)n1 (stereo not drawn) | 0.668
Cc1cccc(CN2CCC3(CC2)CC(Oc2cccnc2)C3)n1 | -0.691
CC(=O)Nc1cccc(Cn2nc(C)nc2C)c1 | -6.2
C1CCc2nnc(CNc3nc(C4CC4)nc4c3CCNCC4)n2CC1 | -5.38
CNC(=O)C1(N2CCC[C@H]2C(=O)NC2CC2)CCCCC1 | -3.89
CCn1cc(CN(C)S(=O)(=O)c2ccc(NC(C)=O)cc2)cn1 | 26.5
CS(=O)(=O)N1CCCN(C(=O)c2ccc(Cn3ccccc3=O)o2)CC1 | -7.8
O=S1(=O)CCCN1Cc1coc(-c2ccc(C(F)(F)F)cc2)n1 | 11
CC(C)c1nc(N2CC[C@@H](N(C)CCc3ccccn3)[C@H](O)C2)no1 | 13.3
CC(C)N1CCN(CCn2cnc3c(F)cccc3c2=O)CC1 | -2.82
Cc1c(C(=O)NCC2CCCO2)nnn1-c1cccc2c1CCN(C)C2 (stereo not drawn) | 19.8
CCOc1cccc(COC(=O)c2cc(Cl)ccn2)n1 | 25.2
CC(C)CC(=O)N1CC(=O)c2sc(Nc3ccc(F)cc3F)nc2C1 | 0.35
Cc1cc(C)n(C2CCCN(C(=O)CCNS(C)(=O)=O)C2)n1 (stereo not drawn) | 14.9
CCOCc1ncn2c1CN(C(=O)Nc1cccc(F)c1)CC2 | -13.3
COc1cccc(N2CCN(Cc3cc(C)cc(F)c3)CC2=O)c1 | -3.94
O=C(c1ncc[nH]1)N1CCC(n2cc(-c3ccccn3)nn2)CC1 | 0.522
